This assay in a line: CLEAR OUTCOMES trial: LDL-cholesterol, hsCRP and other lipid/biomarker end points. Format: in vivo, human. The source says:
The CLEAR OUTCOMES trial was a randomized, placebo-controlled, double-blind trial that enrolled patients at 1250 sites in 32 countries. An independent Data Monitoring Committee reviewed safety and efficacy data during the trial.
Patients 18 to 85 years of age were eligible for enrollment if they met either of two criteria for increased cardiovascular risk, a prior cardiovascular event (secondary prevention) or clinical features that placed them at high risk for a cardiovascular event (primary prevention). (Nicholls S, Lincoff A M, Bays H E, et al. Rationale and design of the CLEAR-outcomes trial: Evaluating the effect of bempedoic acid on cardiovascular events in patients with statin intolerance. Am Heart J. 2021 May; 235: 104-112) All patients provided written informed consent. Patients had to report statin intolerance due to an adverse effect that started or increased during statin therapy and resolved or improved after statin therapy was discontinued. Patients could be enrolled if they tolerated a very low average daily statin dose (e.g., an average daily dose of rosuvastatin <5 mg, atorvastatin <10 mg, simvastatin <10 mg, lovastatin <20 mg, pravastatin <40 mg, fluvastatin <40 mg, or pitavastatin <2 mg). Other lipid-lowering therapies were permitted, including ezetimibe, niacin, bile acid resins, fibrates, and/or proprotein convertase subtilisin kexin type 9 (PCSK9) inhibitors. Full inclusion and exclusion criteria are provided in Nicholls et al. (Am Heart J. 2021).
Eligible patients entered a 4-week run-in period during which patients were treated with single-blind placebo. If patients were intolerant to placebo treatment or if adherence was <80% by tablet count, they were not eligible for randomization. Patients who successfully completed the run-in period were randomly assigned in a 1:1 ratio to receive bempedoic acid at an oral dose of 180 mg or matching placebo, administered daily. Beginning 6 months after enrollment, the central laboratory notified the investigator if the patient's LDL-cholesterol level was ≥25% higher than baseline. These patients were counseled on healthy dietary guidelines and reminded to take all lipid-regulating medications. If repeat testing confirmed that LDL-cholesterol value met the threshold criteria, the provider could adjust the lipid-lowering treatment regimen per standard of care and local guidelines.
This was an event-driven trial designed to provide at least 90% power to detect a 15% relative risk reduction for the primary composite end point at an overall two-sided significance level of 0.05. The trial required a minimum of 1620 primary composite events with >24 months of follow-up for all patients and at least 810 first key secondary end points. The average treatment duration was estimated to be 42 months and a lost-to-follow-up rate of 1% per year. Assuming a 3.59% annual event rate in the placebo group, enrollment of 12,600 patients was required, subsequently amended to 14,000. There were no interim efficacy analyses. A hierarchical approach was prespecified to evaluate sequentially each of the six key secondary efficacy end points with statistical significance at each step required to test the next hypothesis, thereby preserving the study-wise Type I error rate at 5%. All analyses were based on the intent-to-treat principle. The primary efficacy end point was analyzed using Cox proportional hazards model with treatment as a factor to generate the hazard ratio (HR) and 95% confidence interval (CI). The p-value was obtained from a log-rank test.

[1] abbreviates: Inadequately Controlled Diabetes at Baseline, median.
[2] abbreviates: Inadequately Controlled Diabetes at Baseline, observed mean.
Setting [3] is: median, 180 mg oral daily, N = 6992.
Where [4] appears, read: observed mean, 180 mg oral daily, N = 6992.

For the compound `CC(C)(CCCCCC(O)CCCCCC(C)(C)C(=O)O)C(=O)O` [Bempedoic Acid, Bempedoic acid], the “Median change from baseline to month 6 in hsCRP” value (180 mg oral daily, N = 6992) was −22.2%. In addition, where the note is “All patients, median”, the “Change from baseline to Month 6 in fasting glucose” value is -1.0 mg/dL and the “Change from baseline to Month 12 in fasting glucose” value turned out to be 0.0 mg/dL. Further, for the setting “All patients, observed mean”, the “Change from baseline to Month 6 in HbA1c (%)” value was −0.003% and the “Change from baseline to Month 12 in HbA1c (%)” value is reported as 0.04%. Under setting [1], the “Change from baseline to Month 6 in fasting glucose” value was -4.0 mg/dL and the “Change from baseline to Month 12 in fasting glucose” value is -2.75 mg/dL. Also, under setting [2], the “Change from baseline to Month 6 in HbA1c (%)” value was −0.20% and the “Change from baseline to Month 12 in HbA1c (%)” value is recorded as −0.06%. Where the note is “adjusted for baseline HbA1c, pattern-mixed model, 180 mg oral daily”, the “Change from baseline to month 12 in HbA1C in patients with inadequately controlled type 2 diabetes mellitus” value is listed as −0.04%. Under “adjusted for baseline LDL-C, pattern-mixed model, 180 mg oral daily, N = 6992”, the “Mean change from baseline to month 6 in mean LDL-C” value was −21.1%. The “reduction of hsCRP” value (after 6 months treatment, compared with placebo, median baseline 2.3 mg/L) is listed as 21.6%. For the setting “difference vs placebo”, the “Change from baseline to month 12 in HbA1C in patients with inadequately controlled type 2 diabetes mellitus, Difference (95% CI)” value is −0.03%; the “Mean change from baseline to month 6 in mean LDL-C, Difference (95% CI)” value is recorded as −20.3%; the “Median change from baseline to month 6 in hsCRP, Difference (95% CI)” value is listed as −21.6%. Under setting [3], the “Percent change from baseline to Month 6 in triglycerides” value is recorded as −3.4% and the “Percent change from baseline to Month 12 in triglycerides” value was −4.8%. Besides, under setting [4], the “Percent change from baseline to Month 6 in HDL-C” value was −5.8% ±, the “Percent change from baseline to Month 6 in non-HDL-C” value is −17.2% ±, the “Percent change from baseline to Month 6 in total cholesterol” value was −16.9% ± and the “Percent change from baseline to Month 12 in HDL-C” value is −5.7% ±. Under setting [4], the “Percent change from baseline to Month 12 in non-HDL-C” value was −17.1% ±, the “Percent change from baseline to Month 12 in total cholesterol” value was −14.8% ± and the “Percent change from baseline to Month 24 in non-HDL-C” value was −16.2% ±.

Values taken from patent US20240226048A1, “METHODS OF TREATMENT USING BEMPEDOIC ACID” (Esperion Therapeutics, Inc., priority 2023, published 2024).
